# Experimental data published in US7999119B2, “Compounds having CRTH2 antagonist activity” (Oxagen Limited, priority 2006, dated 2011).
# Values joined by “and” are separate entries in the source; they are usually repeats but may differ in a detail not shown here. Equal entries are not always repeated. Where two headings read alike, the source gives them in different places.
# Legend:
# [1] = tested on: DK-PGD2-induced blood eosinophilia; assay: Inhibition of DK-PGD2-induced blood eosinophilia in rats; type: in vivo, rat; conditions: female rats, oral dosing 30 min before 10 μg DK-PGD2 intracardiac; ED50 from dose-response curve; the values are: ED50
# Protocol: Evaluation of Compounds of General Formula (I) as Inhibitors of 13,14-dihydro-15-keto prostaglandin D2 (DK-PGD2)-Induced Blood Eosinophilia in Rats
# The test compound was dissolved in DMSO and diluted with water to give a final dosing volume of 2 ml/kg.
# Female rats (175-250 g; UH colony) were dosed orally with test compound (or vehicle).
# 30 min after dosing all animals were anaesthetised with isoflurane.
# Following induction of anaesthesia, animals receive an intracardiac injection of 10 μg DK-PGD2 in 0.3 ml heparinised (10 U/ml) saline. Control animals received an injection of 0.3 ml heparinised saline.
# 60 min after the intracardiac injection, animals were injected with an overdose of pentobarbitone sodium and a blood sample was taken (into heparin) by cardiac puncture while the rat was anaesthetised but not dead.
# An aliquot of blood (100 μl) was added to Turk's solution and the total leukocyte count determined with a haemocytometer.
# A further aliquot of blood (500 μl) was mixed with an equal volume of 4% Dextran (mw 500,000) and the erythrocytes allowed to settle. A cytospin preparation was made from the resulting leukocyte rich fraction.
# Cytospin preparations were fixed with methanol (5 min) and stained with May-Grunwald (5 min) and Giemsa (15 min) stains. Finally cytospins were washed in phosphate buffer (pH6.8) and air dried.
# Differential leukocyte counts were obtained from the cytospin preparations.
# Blood eosinophil numbers were determined from the total leukocyte count and the percentage eosinophils (differential count).
# Because it was impractical to generate sufficient data in any given experiment, data were obtained over a number of replicate experiments. Data from these replicate experiments were pooled, to provide at least 5 animals in each group and a dose-response curve fitted following a significance test (Mann Whitney) to determine whether or not DK-PGD2 caused a significant increase in blood eosinophils (GraphPad, Prism). A difference between groups was taken to be significant when P<0.05. ED50 values were calculated from the dose-response curve.
# [2] = Pharmacokinetics following oral administration in the rat; type: in vivo
# Protocol: Investigation of Pharmacokinetics of Compounds of General Formula (I) Following Oral Administration in the Rat
# Rats were weighed on the day of dosing.
# The test material was prepared as a 0.3 mg/mL suspension in 1% carboxy-methyl-cellulose (CMC).
# Three groups of 3 rats were dosed as follows:
# Doses were administered as a single oral dose using a gavage tube at a constant dose volume of 10 mL/kg.
# At each sampling time point blood samples (approximately 0.3 mL) was taken from a catheter inserted into a lateral tail vein prior to the start of the experiment. The final blood sample (approximately 2 mL) from each animal was taken by cardiac puncture under isoflurane anaesthesia following which the animal was killed by exsanguination. Blood samples were taken into individual heparinised containers. Blood samples were collected at the following times post-dose:
# Following collection, the blood samples were centrifuged (approximately 10,000×g, 2 min at 4° C.) and the plasma stored as one aliquot at approximately −20° C. pending analysis of drug concentrations by LC-MS/MS.
# The plasma samples were analysed for test material concentrations at BioDynamics using an LC-MS/MS method developed at BioDynamics.
# [3] = tested on: PGD2 induced eosinophil shape change; assay: Human whole blood eosinophil shape change assay; type: cell-based; conditions: Homo sapiens, Eosinophil
# Protocol: Human Whole Blood Eosinophil Shape Change Assay
# Compounds 1 to 3 were assayed for their effect on PGD2 induced eosinophil shape change and were compared with Comparator Compounds A to G.
# Shape Change Assay in Whole Blood
# Compounds (1 μl, 200× final concentration) were added directly to 200 μl whole blood, mixed well and incubated for 15 min, 37° C., 5% CO2. After this time, cell shape was fixed by addition of 300 μl Cytofix™ buffer (BD Biosciences), 15 min on ice. 10 ml RBC lysis buffer was added to the fixed cells, incubated 5 min, at room temperature and centrifuged, 300×g for 5 min. Supernatant (containing lysed red cells) was removed and the lysis step was repeated. Leukocytes were resuspended in 250 μl RPMI/10% FCS and shape change analysed by FACS. Eosinophils were gated out based on their autofluorescence and 2000 eosinophil events were counted per sample. Data were analysed in triplicate.
# [4] = rat, 3 mg/kg p.o, individual male animals, 3 mg/kg
smiles,measurement,setting,value
"Cc1c(Cc2ccccc2S(=O)(=O)c2ccc(F)cc2)c2cc(F)ccc2n1CC(=O)O [Compound 3, 2-(5-fluoro-3-(2-(4-fluorophenylsulfonyl)benzyl)-2-methyl-1H-indol-1-yl)acetic acid]",Potency in inhibition of DK-PGD2-induced blood eosinophilia,[1],0.01 mg/kg
same,concentration at 0.25 h,"[2]; male, rat, plasma, po, 3 mg/kg, rat, 3 mg/kg oral, 0.25 h, individual male animals, read-out: Concentration in Blood",836 ng/mL
same,concentration at 0.25 h,"[2]; male, rat, plasma, po, 3 mg/kg, rat, 3 mg/kg oral, 0.25 h, mean, read-out: Concentration in Blood, Mean",1100 ng/mL
same,concentration at 0.5 h,"[2]; male, rat, plasma, po, 3 mg/kg, rat, 3 mg/kg oral, 0.5 h, individual male animals, read-out: Concentration in Blood",2060 ng/mL
same,concentration at 0.5 h,"[2]; male, rat, plasma, po, 3 mg/kg, rat, 3 mg/kg oral, 0.5 h, mean, read-out: Concentration in Blood, Mean",2250 ng/mL
same,concentration at 1 h,"[2]; male, rat, plasma, po, 3 mg/kg, rat, 3 mg/kg oral, 1 h, individual male animals, read-out: Concentration in Blood",2490 ng/mL
same,concentration at 1 h,"[2]; male, rat, plasma, po, 3 mg/kg, rat, 3 mg/kg oral, 1 h, mean, read-out: Concentration in Blood, Mean",3140 ng/mL
same,concentration at 2 h,"[2]; male, rat, plasma, po, 3 mg/kg, rat, 3 mg/kg oral, 2 h, individual male animals, read-out: Concentration in Blood",4320 ng/mL
same,concentration at 2 h,"[2]; male, rat, plasma, po, 3 mg/kg, rat, 3 mg/kg oral, 2 h, mean, read-out: Concentration in Blood, Mean",4080 ng/mL
same,concentration at 4 h,"[2]; male, rat, plasma, po, 3 mg/kg, rat, 3 mg/kg oral, 4 h, individual male animals, read-out: Concentration in Blood",3130 ng/mL
same,concentration at 4 h,"[2]; male, rat, plasma, po, 3 mg/kg, rat, 3 mg/kg oral, 4 h, mean, read-out: Concentration in Blood, Mean",2400 ng/mL
same,concentration at 6 h,"[2]; male, rat, plasma, po, 3 mg/kg, rat, 3 mg/kg oral, 6 h, individual male animals, read-out: Concentration in Blood",1330 ng/mL
same,concentration at 6 h,"[2]; male, rat, plasma, po, 3 mg/kg, rat, 3 mg/kg oral, 6 h, mean, read-out: Concentration in Blood, Mean",1140 ng/mL
same,concentration at 8 h,"[2]; male, rat, plasma, po, 3 mg/kg, rat, 3 mg/kg oral, 8 h, individual male animals, read-out: Concentration in Blood",1160 ng/mL
same,concentration at 8 h,"[2]; male, rat, plasma, po, 3 mg/kg, rat, 3 mg/kg oral, 8 h, mean, read-out: Concentration in Blood, Mean",847 ng/mL
same,concentration at 12 h,"[2]; male, rat, plasma, po, 3 mg/kg, rat, 3 mg/kg oral, 12 h, mean, read-out: Concentration in Blood, Mean",277 ng/mL
same,concentration at 24 h,"[2]; male, rat, plasma, po, 3 mg/kg, rat, 3 mg/kg oral, 24 h, mean, read-out: Concentration in Blood, Mean",16.1 ng/mL
same,AUC(0-inf),"[2]; male, rat, plasma, po, 3 mg/kg, rat, 3 mg/kg p.o, individual male animals, read-out: AUCinf",24400 ng·h/mL
same,Cmax,"[2]; male, rat, plasma, po, 3 mg/kg, rat, 3 mg/kg p.o, individual male animals, read-out: Cmax",4320 ng/mL
same,Tmax,"[2]; male, rat, plasma, po, 3 mg/kg, rat, 3 mg/kg p.o, individual male animals, read-out: Tmax",2 h
same,half-life,"[2]; male, rat, plasma, po, 3 mg/kg, rat, 3 mg/kg p.o, individual male animals, read-out: T½ (converted)",3.26 h
same,AUC(0-inf),"[2]; male, rat, plasma, po, 3 mg/kg, rat, 3 mg/kg p.o, mean, summary without unit (Table 12), read-out: AUCinf (mean)",21100 ng·h/mL
same,Cmax,"[2]; male, rat, plasma, po, 3 mg/kg, rat, 3 mg/kg p.o, mean, summary without unit (Table 12), read-out: Cmax (mean)",4080 ng/mL
same,AUC(0-inf),"[2]; male, rat, plasma, po, 3 mg/kg, rat, 3 mg/kg p.o, mean, read-out: AUCinf, Mean",21100 ng·h/mL
same,Cmax,"[2]; male, rat, plasma, po, 3 mg/kg, rat, 3 mg/kg p.o, mean, read-out: Cmax, Mean",4080 ng/mL
same,Tmax,"[2]; male, rat, plasma, po, 3 mg/kg, rat, 3 mg/kg p.o, mean, read-out: Tmax, Mean",2 h
same,half-life,"[2]; male, rat, plasma, po, 3 mg/kg, rat, 3 mg/kg p.o, mean, read-out: T½, Mean (converted)",2.8 h
same,Fold over IC50 at 12 h,"[2]; mean blood concentration at 12 h (rat, 3 mg/kg p.o.) divided by whole blood IC50 in ng/ml",102
same,Concentration in Blood,"[2]; rat, 3 mg/kg oral, 0.25 h, individual male animals, 3 mg/kg",1130.7 ng/mL and 1337.2 ng/mL
same,Concentration in Blood,"[2]; rat, 3 mg/kg oral, 0.5 h, individual male animals, 3 mg/kg",2205.2 ng/mL and 2487.5 ng/mL
same,Concentration in Blood,"[2]; rat, 3 mg/kg oral, 1 h, individual male animals, 3 mg/kg",3547.8 ng/mL and 3393.7 ng/mL
same,Concentration in Blood,"[2]; rat, 3 mg/kg oral, 2 h, individual male animals, 3 mg/kg",3685.1 ng/mL and 4221.0 ng/mL
same,Concentration in Blood,"[2]; rat, 3 mg/kg oral, 4 h, individual male animals, 3 mg/kg",2023.1 ng/mL and 2053.8 ng/mL
same,Concentration in Blood,"[2]; rat, 3 mg/kg oral, 6 h, individual male animals, 3 mg/kg",995.0 ng/mL and 1098.0 ng/mL
same,Concentration in Blood,"[2]; rat, 3 mg/kg oral, 8 h, individual male animals, 3 mg/kg",699.5 ng/mL and 678.5 ng/mL
same,Concentration in Blood,"[2]; rat, 3 mg/kg oral, 12 h, individual male animals, 3 mg/kg",465.3 ng/mL and 163.3 ng/mL and 201.1 ng/mL
same,Concentration in Blood,"[2]; rat, 3 mg/kg oral, 24 h, individual male animals, 3 mg/kg",38.2 ng/mL and 0.0 ng/mL and 10.1 ng/mL
same,AUCinf,[2]; [4],17738 ng·h/mL and 19110 ng·h/mL
same,Cmax,[2]; [4],3685 ng/mL and 4221 ng/mL
same,T½,[2]; [4],2.26 h and 2.62 h
same,IC50,"[3]; 10 nm PGD2-induced eosinophil shape change, human whole blood, read-out: Whole Blood IC50",6 nM
same,IC50,"[3]; Table 12 summary of whole blood eosinophil shape change IC50, read-out: IC50 (μmol)",6 nM
same,IC50,"[3]; whole blood eosinophil shape change IC50 converted to ng/mL, read-out: IC50",2.7 ng/mL
